Experimental data as given in BindingDB's records for doi:10.1021/jm8008647 (Ewha Womans University, 2008).

Molecular target: T1, Adenosine receptor A3 (Rattus norvegicus, UniProt P28647)
T1 sequence (P28647 whole entry): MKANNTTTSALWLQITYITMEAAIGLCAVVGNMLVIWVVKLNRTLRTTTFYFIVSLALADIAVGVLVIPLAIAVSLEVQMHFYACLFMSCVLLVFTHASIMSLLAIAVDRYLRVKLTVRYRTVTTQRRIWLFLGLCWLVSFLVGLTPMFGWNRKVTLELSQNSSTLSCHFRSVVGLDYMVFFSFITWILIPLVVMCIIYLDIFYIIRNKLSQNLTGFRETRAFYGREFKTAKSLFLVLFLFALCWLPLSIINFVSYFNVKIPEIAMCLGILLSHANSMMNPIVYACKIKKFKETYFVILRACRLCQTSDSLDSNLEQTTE
Experiment: Displacement of [125I]I-AB-MECA from rat adenosine A3 receptor expressed in CHO cells

## O[C@@H]1[C@H](O)CS[C@H]1n1cnc2c(NCc3cccc(I)c3)ncnc21 [(2R,3R,4S)-2-(6-(3-Iodobenzylamino)-9H-purin-9-yl)-tetrahydrothiophene-3,4-diol]
  Ki: 48 nM
